Assay results: PubChem BioAssay AID687000 (Broad Institute, 2013)
Several values for one entry are separate records, joined by “and”; a condition that tells them apart may be missing. Equal values may be shown once. Activity calls are given as the source filed them.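 The calls were made as follows: active = fitted dose curve reaches 40% lysis signal rise at or below the highest valid concentration tested for that sample; inconclusive = flat fit between 30% and 70%, or poor curve fit; inactive = signal falls, stays flat within 30%, or no crossing.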

system: C. neoformans lysis, adenylate kinase release luminescence, 4 h; assay: inducers of Cryptococcus neoformans cell lysis, dose response, AK release luminescence, cherry-picks (AID 687000)

| Structure (SMILES) | AC40 |
| --- | --- |
| Cc1cc(C)c(NC(=O)C2CCCN2C(=O)NC2CCCCC2)c(C)c1 (centres undefined) | 10.4 µM |
| Cc1cc(C(=O)NC(=S)Nc2ccccc2N2CCOCC2)ccc1[N+](=O)[O-] | 4.95 µM |
| Cc1ccc(C)c(NC(=O)C2(C)CCCN2C(=O)C(C)C)c1 (centres undefined) | 7.4 µM |
| C[C@H]1CN([C@@H](C)CO)C(=O)c2cccc(NS(=O)(=O)c3ccc(Cl)cc3)c2O[C@@H]1CN(C)CC1CC1 | 3.75 µM |
| CO[C@@H]1CN(C)C(=O)c2ccc(NC(C)=O)cc2OC[C@@H](C)N(C(=O)Cc2cccnc2)C[C@H]1C | > 13.5 µM (inactive) |
| COC(=O)C1=C(C)N(CC(C)C)C(=S)NC1c1ccc(-c2ccccc2)cc1 (centres undefined) | > 15 µM (inactive) and 1.4 µM |
| NC(=S)N/N=C/c1ccc(-c2cc(Cl)ccc2Cl)o1 | 0.644 µM |
| O=C(NC(=S)Nc1ccccc1N1CCOCC1)c1ccc(Br)cc1 | > 15 µM (inactive) |
| COC(=O)C1=C(C)N(Cc2ccccc2)C(=S)N[C@H]1c1ccc(Br)cc1 | 2.89 µM and 9.81 µM |
| C[C@H](CO)N1C[C@H](C)[C@H](CN(C)Cc2ccc(-c3ccccc3)cc2)Oc2c(NC(=O)c3ccncc3)cccc2C1=O | > 15 µM (inactive) |
| COC(=O)C1=C(C)N(Cc2ccc(Cl)cc2)C(=S)NC1c1ccccc1 (centres undefined) | 2.53 µM |
| C[C@H](O)C#Cc1ccc2c(c1)O[C@H](CN(C)Cc1ccncc1)[C@H](C)CN([C@H](C)CO)S2(=O)=O | > 15 µM (inactive) |
| Cc1cccc2sc(N3CCN(C(=O)c4cccs4)CC3)nc12 | > 15 µM (inactive) |
| C[C@H](CO)N1C[C@H](C)[C@H](CN(C)C(=O)Nc2ccc3c(c2)OCO3)Oc2ncc(C#CC(C)(C)O)cc2C1=O | > 15 µM (inactive) |
| Cc1noc(C)c1S(=O)(=O)Nc1ccc2c(c1)C(=O)N([C@@H](C)CO)C[C@@H](C)[C@@H](CN(C)Cc1ccccc1)OCCCC[C@H](C)O2 | > 15 µM (inactive) |
| CCCC(=O)Nc1ccc2c(c1)C(=O)N(C)C[C@H](OC)[C@@H](C)CN(C(=O)c1cccnc1)[C@H](C)CO2 | 13.7 µM |
| O=C(NCCc1ccccc1)[C@@H]1[C@@H](CO)[C@@H]2Cn3c(cccc3=O)[C@H]1N2C(=O)C1CCC1 | > 7.5 µM (inactive) |
| CC=Cc1ccc2n(c1=O)C[C@@H]1[C@@H](CO)[C@H](C(=O)N3CCc4ccccc4C3)N(C(=O)C3CC3)[C@H]21 (mixture of isomers) | > 15 µM (inactive) |
| COC(=O)C1=C(C)N(Cc2ccc(Cl)cc2)C(=S)NC1c1ccc(OC)cc1 (centres undefined) | 11.8 µM |
| CCc1nc(N2CCCCC2C)c2oc3ccccc3c2n1 (centres undefined) | 1.65 µM |
| C[C@@H]1CN([C@H](C)CO)S(=O)(=O)c2ccc(C#CC3CC3)cc2O[C@H]1CN(C)CC1CCOCC1 | > 15 µM (inactive) |
| Cc1ccccc1NC(=S)NC(=O)CCc1ccccc1 | 4.93 µM |

| Structure (SMILES) | AC40 |
| --- | --- |
| C[C@H]1CN([C@@H](C)CO)C(=O)Cc2cc(NS(C)(=O)=O)ccc2O[C@@H]1CN(C)Cc1ccc(Cl)c(Cl)c1 | > 15 µM (inactive) |
| COc1cc(OC)c(N(C)C(=O)c2cn(C)c(=O)c3cc(OC)c(OC)cc23)cc1Cl | > 15 µM (inactive) |
| COc1ccccc1NC(=S)NCc1ccc(Cl)cc1 | 2.19 µM |
| C[C@@H]1CN([C@@H](C)CO)C(=O)c2cc(NS(=O)(=O)c3cn(C)cn3)ccc2O[C@@H](C)CCCCO[C@@H]1CN(C)Cc1ccc(C(F)(F)F)cc1 | > 15 µM (inactive) |
| COCC(=O)Nc1ccc2c(c1)C(=O)N(C)C[C@H](OC)[C@@H](C)CN(C(=O)c1ccccc1)[C@@H](C)CO2 | > 15 µM (inactive) |
| C[C@H]1CN([C@@H](C)CO)C(=O)c2ccccc2-c2ccccc2CO[C@H]1CN(C)S(=O)(=O)c1cccc(C#N)c1 | > 15 µM (inactive) |
| COc1ccc(CNC(=S)NCc2ccc(OC)cc2)cc1 | > 15 µM (inactive) |
| O=C(COC(=O)CCC1CCCC1)Nc1nc2c(F)c(F)c(F)cc2s1 | > 15 µM (inactive) |
| COc1ccc(NC(=S)NCc2ccc(Cl)cc2)c(OC)c1 | 4.16 µM |
| CC(C)CC#Cc1cnc2c(c1)C(=O)N([C@H](C)CO)C[C@H](C)[C@H](CN(C)C(=O)c1cccnc1)O2 | > 15 µM (inactive) |
| C[C@H]1CN([C@@H](C)CO)C(=O)Cc2cc(N(C)C)ccc2O[C@@H]1CN(C)C(=O)Nc1ccc(C(F)(F)F)cc1 | > 15 µM (inactive) |
| COc1cccc(S(=O)(=O)Nc2ccc3c(c2)[C@H]2C[C@H](CC(=O)N(C)C)O[C@@H](CO)[C@H]2O3)c1 | > 15 µM (inactive) |
| Fc1ccccc1NC(=S)NCCc1cccc(Cl)c1 | 3.27 µM |
| COc1cccc(C(=O)NC(=S)Nc2ccccc2N2CCOCC2)c1 | > 15 µM (inactive) |
| Cc1ccc(C(=O)NC(=S)Nc2ccc(N3CCOCC3)cc2)cc1 | 11.9 µM |
| COc1ccc(N2CCN(C(=O)Cc3cccs3)CC2)cc1 | > 15 µM (inactive) |
| CC(C)CC1(C)N=C(c2ccccc2)C(=S)N1 (centres undefined) | 11.2 µM |
| COC(=O)C1=C(C)N(Cc2ccc(Br)cc2)C(=S)NC1c1ccccc1 (centres undefined) | 2.1 µM |
| COc1ccccc1NC(=S)NCc1ccccc1Cl | 7.43 µM |
| COc1ccc(C(=O)NC(=S)Nc2ccccc2N2CCOCC2)cc1[N+](=O)[O-] | > 15 µM (inactive) |
| COC(=O)C1=C(C)N(Cc2ccc(F)cc2)C(=S)NC1c1cccc(F)c1 (centres undefined) | 14.2 µM and 2.63 µM |
| CCOC(=O)c1c(-c2ccc(-c3ccccc3)cc2)csc1NC(=O)CNCCN(C)C | 1.62 µM |
